# Like-named read-outs stand apart in the source and are kept apart here.
# Key:
# [1] = system: cellular methylation (symmetric di-methyl arginine) in Z-138 cells; test: In Cell Western (ICW) methylation assay, SYM11 antibody; format: cell-based; details: Homo sapiens, 96 h, 4 days of treatment, n=1
# Description: Percent inhibition was determined and IC50 curves were generated using triplicate wells per concentration of compound. IC50 values were calculated using GraphPad Prism using a 4-parametric fit of the normalized dose response curves with the top fixed to 100%. Z-138 suspension cells were purchased from ATCC (American Type Culture Collection, Manassas, Va.). RPMI/Glutamax medium, penicillin-streptomycin, heat inactivated fetal bovine serum, and D-PBS were purchased from Life Technologies, Grand Island, N.Y., USA. Odyssey blocking buffer, 800CW goat anti-rabbit IgG (H+L) antibody, and Licor Odyssey infrared scanner were purchased from Licor Biosciences, Lincoln, Nebr., USA. Symmetric di-methyl arginine antibody was purchased from EMD Millipore, Billerica, Mass., USA. 16% Paraformaldehyde was purchased from Electron Microscopy Sciences, Hatfield, Pa., USA. Z-138 suspension cells were maintained in growth medium (RPMI 1640 supplemented with 10% v/v heat inactivated fetal bovine serum and 100 units/mL penicillin-streptomycin) and cultured at 37° C. under 5% CO2. […] The average of the ratio values for each control type was calculated and used to determine the percent inhibition for each test well in the plate. […] Percent inhibition was determined and IC50 curves were generated using triplicate wells per concentration of compound. […]
# Z-138 = test: Long-term proliferation (LTP) assay; format: cell-based; details: Homo sapiens
# Description: FIG. 4 illustrates a representative sample of a long-term proliferation assay performed in the mantle cell lymphoma cell line Z-138. Assays were performed in technical triplicates, reading cell viability over 14 days. Growth curves (top panel) were calculated in Excel. IC50 (bottom panel) and IC90 (not shown) values were calculated in GraphPad Prism using a non-linear regression analysis, fixing the top and bottom of the curves to 100 and 0%, respectively. The IC50 values in the Table are indicated in microM. [table]
# [2] = system: MCL cell lines (Z-138, Maver-1, Mino, Jeko-1, Granta-519); test: Gene expression results from MCL cell lines (Table 4); format: cell-based, Human; details: Day 4
# Description: The fold change was calculated using the Comparative Ct method ([…]). N=1. A previous RNA Seq study in MCL cell lines using a tool compound with the same cellular potency as Formula B identified expression changes in a number of genes involved in the apoptotic response (unpublished results). These genes included the Bcl-2 family members PUMA and BAX, well characterized drivers of the apoptotic response. Other genes implicated in the apoptotic response were also identified and include PHLDA3, TP53I3, p21, APOBEC3H, TRIM22, and FAS. […] [table]
# [3] = tested: Z-138, Maver-1, Granta-519, Jeko-1
smiles,measurement,setting,value
CC(=O)N1CCC(Nc2cc(C(=O)NC[C@H](O)CN3CCc4ccccc4C3)ccn2)CC1 [Formula B],IC50,[1],0.64 nM
same,IC50,"Z-138; 264 h, 11-day treatment, N = 1, read-out: Formula B LTP IC50",3 nM
same,IC90,"Z-138; 264 h, 11-day treatment, N = 1, read-out: Formula B LTP IC90",20 nM
same,IC50,"Z-138; Table 3, read-out: LTP IC50",2 nM
same,Cell Lines Showing Dose Dependent Changes: P21,"[2]; tested: Z-138, Granta-519, Jeko-1","Z-138, Granta-519"
same,Cell Lines Showing Dose Dependent Changes: BAX,"[2]; tested: Z-138, Maver-1","Z-138, Maver-1"
same,Cell Lines Showing Dose Dependent Changes: FAS,[2]; [3],Granta-519 (slight)
same,Cell Lines Showing Dose Dependent Changes: TRIM22,[2]; [3],Granta-519 (slight)
same,Cell Lines Showing Dose Dependent Changes: PUMA,"[2]; tested: Z-138, Maver-1, Mino, Jeko-1, Granta-519","Z-138, Maver-1"

# Reference: patent US10653693B2, “PRMT5 inhibitors and uses thereof” (Epizyme, Inc., priority 2014, dated 2020)
